Experimental data reported in article PMC10254030, “Photoactivatable Heptamethine-Based Carbonic Anhydrase Inhibitors Leading to New Anti-Antibacterial Agents” (International Journal of Molecular Sciences, 2023).
Where two headings read alike, the source gives them in different places.

Key:
E. faecalis = test: MIC and MBC test (NF EN ISO 20776-1), E. faecalis; format: cell-based, Enterococcus faecalis; details: for MIC: Enterococcus faecalis; for MBC E. faecalis: bacteriostatic or bactericidal effect, tested up to 8 × MIC
Method: (§1) Derivatives 2a–f were dissolved in DMSO and further diluted with distilled water to the required final concentration. The microorganisms (E. faecalis, S. aureus, and S. epidermidis reported in Table 4) were cultured overnight at 35 °C in Mueller Hinton Broth 2, Cation-Adjusted (BD, BD 212322, New York, NY, USA) and adjusted to 0.5 McFarland, according to standardized guidelines NF EN ISO 20776-1 [23]. The minimal inhibitory concentration (MIC) test was performed according to the standardized guidelines NF EN ISO 20776-1 [23]. Once the MIC was obtained, the minimal bactericidal concentration (MBC) test was performed.

PsCA3 = target: T1, PsCA3 (Pseudomonas aeruginosa, UniProt Q9HVB9); test: biochemical; details: stopped-flow CO2 hydrase assay, mean from 3 assays
T1 construct: made in house
T1 sequence (Q9HVB9 1-215): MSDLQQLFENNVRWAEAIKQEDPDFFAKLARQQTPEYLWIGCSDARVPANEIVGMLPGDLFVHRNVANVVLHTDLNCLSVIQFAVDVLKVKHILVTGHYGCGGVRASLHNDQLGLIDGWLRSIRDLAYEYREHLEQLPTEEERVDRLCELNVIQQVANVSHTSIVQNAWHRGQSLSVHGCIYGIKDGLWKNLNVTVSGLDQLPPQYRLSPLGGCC
Method: (§2) The CA isoforms belong to different classes of CA enzymes characterized by different kinetic and structural features to assess isoform selectivity.
(§3) An Applied Photophysics stopped-flow instrument was used to assay CA-catalyzed CO2 hydration activity. […] The uncatalyzed rates were determined in the same manner and subtracted from the total observed rates. Stock solutions of the inhibitor (0.1 mM) were prepared in distilled–deionized water, and dilutions up to 0.01 nM were done thereafter with the assay buffer. Inhibitor and enzyme solutions were preincubated together for 15 min at room temperature prior to the assay to allow for the formation of the E–I complex. The inhibition constants were obtained by non-linear least-squares methods using PRISM 3 and the Cheng–Prusoff equation as reported earlier and represent the mean from at least three different determinations. All CA isoforms were recombinant proteins obtained in house, as reported earlier.

PsCA1 = PsCA1 (Pseudomonas aeruginosa, UniProt Q9I730); test: biochemical; details: stopped-flow CO2 hydrase assay, mean from 3 assays
PsCA1, sequence (Q9I730 entry or part of it): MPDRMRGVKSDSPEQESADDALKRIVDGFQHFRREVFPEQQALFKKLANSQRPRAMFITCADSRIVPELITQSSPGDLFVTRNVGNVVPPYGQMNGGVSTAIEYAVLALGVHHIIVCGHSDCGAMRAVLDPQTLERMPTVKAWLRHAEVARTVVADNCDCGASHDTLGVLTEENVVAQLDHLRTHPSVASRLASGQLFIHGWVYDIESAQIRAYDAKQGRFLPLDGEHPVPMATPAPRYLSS
Method: as §2, §3

MRC-5 cells = test: cytotoxicity, MTT assay; format: cell-based, human; details: for IC50: MRC5, cytotoxicity, human lung fibroblasts, 24 h, MTT
Method: The cytotoxicity of the products was tested on MRC-5 cells (lung fibroblasts, ATCC CCL-171) with a seeding concentration of 10,000 cells/well. The products were diluted with a 2% FSC MEM medium (Sigma, M4655, Missouri, MO, USA) to concentrations ranging from 1 to 256 μg/mL and incubated with 80% confluent cells for 24 h. The following day, a 3-[4,5-dimethylthiazol-2-yl]-2,5-diphenyl tetrazolium bromide (MTT) assay was performed, and the optical density of the samples was measured at 540 nm.

human red blood cells = test: hemolysis assay; format: cell-based; details: 30 min 37 °C; for hemolysis activity, cytotoxicity to human red blood cells: 0.5–150 µg/mL, compared with 0.01% Tween 20
Method: Blood collected at CHU Nancy was washed three times with PBS, and 10^7 cells/mL were incubated for 30 min at 37 °C with the newly synthesized compounds. The derivatives were previously diluted to the range from 0.5 to 75/150 μg/mL with PBS. As a positive control, cells were resuspended with 0.01% polysorbate 20 (Tween 20). Tween 20 has often been used as a reference compound for cell lysis. Upon incubation, the samples were centrifuged for 5 min at 800× g, and the supernatant was collected for optical density reading at 540 nm.

hCA II = target: T2, hCA II (Homo sapiens, UniProt P00918); test: stopped-flow CO2 hydrase assay, hCA II; format: biochemical; details: pH 7.4, mean from 3 assays
T2 construct: made in house
Method: as §2, §3

hCA I = target: T3, hCA I (Homo sapiens, UniProt P00915); test: stopped-flow CO2 hydrase assay, hCA I; format: biochemical; details: for Ki: stopped-flow CO2 hydrase assay, pH 7.4, mean from 3 assays; for selectivity for all assayed bacterial isoforms: bacterial CA isoforms versus the human off-target hCA I and II
T3 construct: made in house
T3 sequence (P00915 whole entry, canonical isoform): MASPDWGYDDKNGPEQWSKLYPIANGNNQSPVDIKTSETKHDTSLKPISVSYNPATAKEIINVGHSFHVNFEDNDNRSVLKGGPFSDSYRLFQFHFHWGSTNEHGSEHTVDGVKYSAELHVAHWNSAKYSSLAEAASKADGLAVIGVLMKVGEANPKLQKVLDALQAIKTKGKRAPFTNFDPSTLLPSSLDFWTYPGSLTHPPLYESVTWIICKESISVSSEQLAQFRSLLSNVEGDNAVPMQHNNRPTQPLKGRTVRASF
Method: as §2, §3

S. epidermidis [1] = test: MIC and MBC test (NF EN ISO 20776-1), S. epidermidis; format: cell-based, Staphylococcus epidermidis; details: for MIC S. epidermidis / MIC: ATCC 14990, without irradiation; for MIC: Staphylococcus epidermidis, ATCC14990, light or radiation study
Method: as §1

S. aureus = test: MIC and MBC test (NF EN ISO 20776-1), S. aureus; format: cell-based, Staphylococcus aureus; details: for MIC S. aureus / MIC: ATCC 29213, without irradiation; for MIC: Staphylococcus aureus, ATCC29213, light or radiation study; for MBC S. aureus: bacteriostatic or bactericidal effect, tested up to 8 × MIC
Method: as §1

S. epidermidis [2] = test: photoactivity assay, irradiation with 652 nm laser; format: cell-based, Staphylococcus epidermidis; details: 652 nm laser 47 min, 30 J/cm2, 2c and 2d at 64 μg/mL, others at MIC
Method: Upon incubation of 1.5–2 h with the products, the samples were irradiated for 47 min with a 652 nm laser (to obtain 1.70 W, 30 J/cm^2). Upon irradiation, the cells were plated and incubated overnight at 35 °C on Mueller Hinton Agar (BD, 225250, New York, NY, USA).

E. coli γ = E. coli γ (Escherichia coli, UniProt P0A9W9); format: biochemical; details: stopped-flow CO2 hydrase assay, pH 8.4, mean from 3 assays
E. coli γ, sequence (P0A9W9 whole entry): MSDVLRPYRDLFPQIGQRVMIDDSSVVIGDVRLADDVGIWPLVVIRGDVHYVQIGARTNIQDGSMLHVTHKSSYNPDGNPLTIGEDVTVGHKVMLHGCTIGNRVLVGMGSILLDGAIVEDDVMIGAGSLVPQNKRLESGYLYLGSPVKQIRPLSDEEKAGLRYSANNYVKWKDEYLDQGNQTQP
Method: as §2, §3

E. coli β = target: T4, E. coli β (Escherichia coli, UniProt P61517); test: stopped-flow CO2 hydrase assay, E. coli β; format: biochemical; details: pH 8.4, mean from 3 assays
T4 construct: made in house
T4 sequence (P61517 whole entry): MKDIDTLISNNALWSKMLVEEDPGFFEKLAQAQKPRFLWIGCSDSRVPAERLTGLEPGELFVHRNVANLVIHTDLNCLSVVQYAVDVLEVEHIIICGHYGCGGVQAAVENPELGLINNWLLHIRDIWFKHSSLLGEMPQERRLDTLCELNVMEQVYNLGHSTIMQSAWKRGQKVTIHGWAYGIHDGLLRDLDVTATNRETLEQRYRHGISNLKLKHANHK
Method: as §2
An Applied Photophysics stopped-flow instrument was used to assay CA-catalyzed CO2 hydration activity. Phenol red (at a concentration of 0.2 mM) was used as an indicator, working at the absorbance maximum of 557 nm, with 20 mM Hepes (pH 7.4 for α-class and pH 8.4 for β- and γ-classes) as a buffer and 20 mM Na2SO4 (to maintain constant the ionic strength), following the initial rates of the CA-catalyzed CO2 hydration reaction for a period of 10–100 s. The CO2 concentrations ranged from 1.7 to 17 mM for the determination of the kinetic parameters and inhibition constants. Enzyme concentrations ranged between 5 and 12 nM. For each inhibitor, at least six traces of the initial 5–10% of the reaction were used to determine the initial velocity. The uncatalyzed rates were determined in the same manner and subtracted from the total observed rates. Stock solutions of the inhibitor (0.1 mM) were prepared in distilled–deionized water, and dilutions up to 0.01 nM were done thereafter with the assay buffer. Inhibitor and enzyme solutions were preincubated together for 15 min at room temperature prior to the assay to allow for the formation of the E–I complex. The inhibition constants were obtained by non-linear least-squares methods using PRISM 3 and the Cheng–Prusoff equation as reported earlier and represent the mean from at least three different determinations. All CA isoforms were recombinant proteins obtained in house, as reported earlier.

[3] = light or radiation study, clinical isolate, without irradiation, read-out: MIC E. faecalis
[4] = clinical isolate, without irradiation
[5] = bacteriostatic or bactericidal effect, tested up to 8 × MIC
[6] = span over the four compounds and both strains, read-out: MIC against the E. faecalis and S. aureus strains

Row | Compound | MIC (E. faecalis; [3]) [µg/mL] | MBC E. faecalis (E. faecalis) | MIC E. faecalis (E. faecalis; [4]) | Ki (PsCA3) [nM] | Ki (PsCA1) [nM] | IC50 (MRC-5 cells) [µg/mL] | hemolysis activity, cytotoxicity to human red blood cells (human red blood cells) | Ki (hCA II) [nM] | Ki (hCA I) [nM] | MIC S. epidermidis (S. epidermidis [1]) | MIC (S. epidermidis [1]) [µg/mL] | MBC S. epidermidis (S. epidermidis [1]; Table 3) | MBC S. epidermidis (S. epidermidis [1]; [5]) | MIC S. aureus (S. aureus) | MIC (S. aureus) [µg/mL] | MBC S. aureus (S. aureus) | Growth Reduction (S. epidermidis [2]) [log reduction] | Ki (E. coli γ) [nM] | Ki (E. coli β) [nM] | MIC (E. faecalis; [6]) [µg/mL] | also measured
1 | CC1(C)C(/C=C/C2=C(NCCc3ccc(S(N)(=O)=O)cc3)C(=C/C=C3\N(CCCCS(=O)(=O)O)c4ccc5ccccc5c4C3(C)C)/CCC2)=[N+](CCCCS(=O)(=O)[O-])c2ccc3ccccc3c21 [Compound 2c] | > 256 | > 256 µg/mL | over 256 µg/mL | 76.8 | 64.8 | > 256 | significant cytotoxicity | 91 | 529 | over 256 µg/mL | > 256 | > 256 µg/mL | > 256 µg/mL | over 256 µg/mL | > 256 | > 256 µg/mL | 1 | 117 | 60.2 | – | –
2 | CN1C(=CC=C2CCCC(C=CC3=[N+](C)c4ccc5ccccc5c4C3(C)C)=C2NCCc2ccc(S(N)(=O)=O)cc2)C(C)(C)c2c1ccc1ccccc21 [Compound 2e] | 16 to 64 | bactericidal | – | 77.7 | 71.1 | 2 | not cytotoxic | 160 | 861 | – | 1 to 4 | bactericidal | bactericidal | – | 8 to 32 | bactericidal | – | 110 | 74.1 | 8 to 128 | –
3 | CN1C(=CC=C2CCCC(C=CC3=[N+](C)c4ccc5ccccc5c4C3(C)C)=C2NCCNC(=O)Nc2ccc(S(N)(=O)=O)cc2)C(C)(C)c2c1ccc1ccccc21 [Compound 2f] | 32 to 128 | bactericidal | – | 94.5 | 58.3 | 78.8 | not cytotoxic | 625 | 3900 | – | 2 to 8 | bacteriostatic | bacteriostatic | – | 16 to 64 | bacteriostatic | 1 | 124 | 64.9 | 8 to 128 | selectivity for all assayed bacterial isoforms (hCA I): ~10 fold; selectivity index (SI) against S. epidermidis (S. epidermidis [1]; ratio between cytotoxicity in μg/mL and the MIC value in μg/mL): highest SI
4 | CCCN1C(=CC=C2CCCC(C=CC3=[N+](CCC)c4ccccc4C3(C)C)=C2NCCc2ccc(S(N)(=O)=O)cc2)C(C)(C)c2ccccc21 [Compound 2a] | 16 to 64 | bactericidal | – | 89.4 | 60.4 | 38.5 | not cytotoxic | 163 | 410 | – | 4 to 16 | bactericidal | bactericidal | – | 8 to 32 | bacteriostatic | 1 | 120 | 54.8 | 8 to 128 | fold less toxic than 2e (MRC-5 cells; MRC-5 IC50 compared with 2e): 19 fold
5 | CC1(C)C(/C=C/C2=C(NCCNC(=O)Nc3ccc(S(N)(=O)=O)cc3)C(=C/C=C3\N(CCCCS(=O)(=O)O)c4ccc5ccccc5c4C3(C)C)/CCC2)=[N+](CCCCS(=O)(=O)[O-])c2ccc3ccccc3c21 [Compound 2d] | > 256 | > 256 µg/mL | over 256 µg/mL | 81 | 88.7 | > 256 | significant cytotoxicity | 183 | 923 | over 256 µg/mL | > 256 | > 256 µg/mL | > 256 µg/mL | over 256 µg/mL | > 256 | > 256 µg/mL | 1 | 111 | 69.8 | – | –
6 | CCCN1C(=CC=C2CCCC(C=CC3=[N+](CCC)c4ccccc4C3(C)C)=C2NCCNC(=O)Nc2ccc(S(N)(=O)=O)cc2)C(C)(C)c2ccccc21 [Compound 2b] | 16 to 64 | bacteriostatic | – | 48.1 | 46.9 | 82.2 | significant cytotoxicity | 588 | 957 | – | 4 to 16 | bacteriostatic | bacteriostatic | – | 8 to 32 | bacteriostatic | 2 | 93.5 | 69.4 | 8 to 128 | concentration above which cytotoxic to human red blood cells (human red blood cells; hemolysis assay): > 75 µg/mL; selectivity for all assayed bacterial isoforms (hCA I): ~10 fold
